Test [1] in a line: HEp-2 cell cytotoxicity, dose response, cytotoxicity control for RSV inhibitor project, HTS (AID 2410). The note with it: human respiratory syncytial virus. It counts as functional.
Another test has as its target T1, Streptokinase A (Streptococcus pyogenes serotype M1, UniProt P10520).
T1 sequence (P10520 whole entry): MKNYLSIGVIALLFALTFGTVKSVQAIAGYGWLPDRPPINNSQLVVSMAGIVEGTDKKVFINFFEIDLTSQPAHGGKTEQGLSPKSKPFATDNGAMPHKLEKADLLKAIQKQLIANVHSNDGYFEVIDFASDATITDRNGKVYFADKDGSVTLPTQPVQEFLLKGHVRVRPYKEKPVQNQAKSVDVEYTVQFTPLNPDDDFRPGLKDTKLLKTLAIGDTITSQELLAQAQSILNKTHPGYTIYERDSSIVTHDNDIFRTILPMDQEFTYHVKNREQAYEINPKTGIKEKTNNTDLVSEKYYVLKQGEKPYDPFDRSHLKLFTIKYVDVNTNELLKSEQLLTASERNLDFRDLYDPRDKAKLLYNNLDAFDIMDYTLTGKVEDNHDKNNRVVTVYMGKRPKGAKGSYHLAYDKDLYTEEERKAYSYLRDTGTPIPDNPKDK
Description: S. pyogenes streptokinase expression inhibitors, potency, dose response, plasminogen activation absorbance, OD405 (AID 1914).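 Further: secreted streptokinase activity via plasminogen activation per viability signal from cell pellet.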 It counts as functional, Streptococcus pyogenes M1 GAS.

For test [2], the system named is Streptococcus sp. 'group A'. Description: growth inhibition of control SK(-) GAS strain, dose response, counter-screen for streptokinase expression inhibitor project, luminescence, kanamycin, BacTiterGlo, confirmation (AID 1900). It counts as functional, organism-based.
Another test deals with Nonstructural protein 1 (Influenza A virus, UniProt Q194T2). It counts as functional, Influenza A virus (A/California/07/2009(H1N1)).
Nonstructural protein 1, sequence (Q194T2 whole entry): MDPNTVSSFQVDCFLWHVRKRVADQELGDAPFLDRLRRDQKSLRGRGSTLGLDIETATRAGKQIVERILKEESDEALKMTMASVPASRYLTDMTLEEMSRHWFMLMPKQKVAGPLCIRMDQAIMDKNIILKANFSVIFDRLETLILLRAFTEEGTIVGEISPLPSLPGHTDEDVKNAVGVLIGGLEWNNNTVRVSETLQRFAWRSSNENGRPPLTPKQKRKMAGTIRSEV
The next test has as its system Streptococcus. Description: Group A Streptococcus viability loss, dose response, counter-screen for streptokinase expression inhibitor project, luminescence, BacTiterGlo (AID 1915).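 Further: potency for reduction of bacterial viability or growth.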 It counts as functional, organism-based.
For the next test, the target named is T2, Protein skinhead-1 (Caenorhabditis elegans, UniProt P34707).
T2 sequence (P34707 whole entry): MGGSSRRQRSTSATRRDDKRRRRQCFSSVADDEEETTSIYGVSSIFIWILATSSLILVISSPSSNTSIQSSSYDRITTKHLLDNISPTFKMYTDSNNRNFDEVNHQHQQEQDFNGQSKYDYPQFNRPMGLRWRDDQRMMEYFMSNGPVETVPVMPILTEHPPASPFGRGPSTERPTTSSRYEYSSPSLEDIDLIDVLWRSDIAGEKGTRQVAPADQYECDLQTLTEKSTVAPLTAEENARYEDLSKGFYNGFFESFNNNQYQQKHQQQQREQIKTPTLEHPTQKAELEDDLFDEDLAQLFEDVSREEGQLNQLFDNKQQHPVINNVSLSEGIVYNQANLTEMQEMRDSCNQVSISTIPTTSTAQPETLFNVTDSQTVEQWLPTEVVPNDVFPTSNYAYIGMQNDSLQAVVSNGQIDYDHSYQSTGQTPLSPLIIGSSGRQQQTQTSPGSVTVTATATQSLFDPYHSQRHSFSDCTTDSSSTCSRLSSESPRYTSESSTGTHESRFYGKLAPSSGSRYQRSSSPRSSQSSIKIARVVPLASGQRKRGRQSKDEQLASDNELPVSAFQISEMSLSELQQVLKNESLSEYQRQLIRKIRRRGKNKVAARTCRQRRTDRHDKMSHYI
It counts as functional.

A short description of test [3]: inhibitors of HIV Env-driven cell fusion, dose response, cherry-pick (AID 652057). It counts as functional, cell-based.
The nature of test [4]: ZM109 Env clade C HIV-1 fusion inhibitors, dose response, HeLa effector, CEM target cells, luciferase, cherry-pick (AID 652058). It counts as functional, cell-based.
Test [5] can be described thus: off-target signal loss in HeLa-CEM21 co-culture – HeLa F-luc CTL cells, cherry-picked, counter-screen for HIV-1 Env fusion inhibitor project, dose response (AID 652040).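 Further: potency for signal decrease marking cytotoxic or nonspecific inhibition.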 It counts as functional, cell-based.
A short description of test [6]: inhibitors of clade B AD8 Env fusion, dose response, cell-based, cherry-pick (AID 652062).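 Further: luciferase signal from cell-cell fusion driven by HIV-1 clade B AD8 Env; potency is for inhibitors of fusion seen as a drop in luminescence.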 It counts as functional.
In test [7] the target is T3, Carboxy-terminal domain RNA polymerase II polypeptide A small phosphatase 1 (Homo sapiens, UniProt Q9GZU7).
T3 sequence (Q9GZU7 whole entry): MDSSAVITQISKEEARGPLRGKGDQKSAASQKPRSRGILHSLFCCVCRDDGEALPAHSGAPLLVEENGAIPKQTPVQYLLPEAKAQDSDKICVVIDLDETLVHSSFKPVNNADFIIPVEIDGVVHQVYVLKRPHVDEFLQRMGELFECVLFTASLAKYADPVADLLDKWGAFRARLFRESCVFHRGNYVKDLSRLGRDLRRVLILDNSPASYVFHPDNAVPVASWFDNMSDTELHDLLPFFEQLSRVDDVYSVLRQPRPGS
Description: inhibitors of CTDSP1, concentration-response testing, biochemical assay, absorbance-based, actives from ultra-high-throughput screening (AID 540297). It counts as functional.

A further test addresses Cytochrome P450 2C9 (Homo sapiens, UniProt P11712).
The next test has as its target T4, Cytochrome P450 1A2 (Homo sapiens, UniProt P05177).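 Further: PubChem cytochrome P450 panel assay, CYP1A2 panel member.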
T4 sequence (P05177 whole entry): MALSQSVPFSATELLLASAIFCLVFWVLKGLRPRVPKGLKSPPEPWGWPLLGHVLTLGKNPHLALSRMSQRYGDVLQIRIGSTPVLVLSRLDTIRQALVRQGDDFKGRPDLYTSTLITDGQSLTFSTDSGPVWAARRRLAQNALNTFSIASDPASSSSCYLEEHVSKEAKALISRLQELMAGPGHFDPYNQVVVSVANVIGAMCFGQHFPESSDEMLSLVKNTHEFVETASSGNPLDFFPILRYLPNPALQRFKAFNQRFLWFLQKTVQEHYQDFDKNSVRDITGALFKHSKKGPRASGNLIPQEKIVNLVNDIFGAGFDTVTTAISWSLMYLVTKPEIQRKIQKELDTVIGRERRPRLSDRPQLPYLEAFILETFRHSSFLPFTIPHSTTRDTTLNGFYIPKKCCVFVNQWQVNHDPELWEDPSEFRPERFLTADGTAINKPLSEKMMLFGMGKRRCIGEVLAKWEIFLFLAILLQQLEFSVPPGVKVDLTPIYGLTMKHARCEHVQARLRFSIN

For the next test, the system named is SN12K1. Description: cells. It counts as functional. The conditions noted are these: Homo sapiens.
The next test concerns P388/ADR. Description: cells. It counts as functional. The note with it: Mus musculus.
A short description of test [8]: control 3'UTR Renilla luciferase suppression, dose response, counter-screen for Shn3 inhibitor project, cell-based, Clone20-Shn3RL, cherry-picked (AID 624133). It counts as functional.
A short description of test [9]: HepG2 cell cytotoxicity, dose response, cytotoxicity control for Shn3 inhibitor project, CellTiter-Glo, cherry-picked (AID 624134). It counts as functional, cell-based.
Test [10] in a line: Shn3 3'UTR reporter inhibitors, dose response, cell-based, Clone20 osteoblasts, firefly luciferase, cherry-picked (AID 624132).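 Further: firefly luciferase luminescence from reporter carrying the Shn3 3'UTR in osteoblasts.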 It counts as functional.
Another test has as its system Vero. Description: cells. It counts as functional. The note with it: Chlorocebus sabaeus.
For a further test, the target named is Fatty acid synthase (Homo sapiens, UniProt P49327). Description: FAS thioesterase domain inhibitors, dose response, biochemical, kinetic fluorescence intensity (AID 624326).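 Further: rate of fluorescence rise from hydrolysis of a fluorogenic O-methyl fluorescein ester substrate.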 It counts as functional.
Test [11] has as its target FAD-linked sulfhydryl oxidase ALR (Homo sapiens, UniProt P55789). Description: inhibitors of human ALR sulfhydryl oxidase, dose response, biochemical, H2O2 detection, luminescence, cherry-pick (AID 493248).
For test [12], the target named is Peroxisome proliferator-activated receptor gamma/Nuclear receptor coactivator 1 (Homo sapiens, UniProt P37231). It counts as functional.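 Further: agonist potency as compounds enhance coactivator SRC-1 recruitment to PPARgamma.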
Peroxisome proliferator-activated receptor gamma/Nuclear receptor coactivator 1, sequence (P37231 whole entry): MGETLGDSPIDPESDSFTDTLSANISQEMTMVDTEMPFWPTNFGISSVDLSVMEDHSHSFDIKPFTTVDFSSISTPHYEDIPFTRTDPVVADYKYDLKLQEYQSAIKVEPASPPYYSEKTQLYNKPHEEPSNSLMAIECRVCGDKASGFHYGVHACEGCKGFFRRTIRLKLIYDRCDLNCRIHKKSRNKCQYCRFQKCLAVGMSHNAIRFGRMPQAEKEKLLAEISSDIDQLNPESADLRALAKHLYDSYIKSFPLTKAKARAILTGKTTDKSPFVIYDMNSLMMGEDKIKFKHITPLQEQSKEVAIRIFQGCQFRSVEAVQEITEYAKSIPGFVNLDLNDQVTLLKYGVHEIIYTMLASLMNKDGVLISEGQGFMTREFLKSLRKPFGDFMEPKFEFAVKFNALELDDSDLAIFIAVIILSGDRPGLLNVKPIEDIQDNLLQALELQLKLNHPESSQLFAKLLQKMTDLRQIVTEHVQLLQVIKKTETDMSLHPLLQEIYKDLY
Peroxisome proliferator-activated receptor gamma/Nuclear receptor coactivator 1, sequence (Q15788 whole entry, further chain): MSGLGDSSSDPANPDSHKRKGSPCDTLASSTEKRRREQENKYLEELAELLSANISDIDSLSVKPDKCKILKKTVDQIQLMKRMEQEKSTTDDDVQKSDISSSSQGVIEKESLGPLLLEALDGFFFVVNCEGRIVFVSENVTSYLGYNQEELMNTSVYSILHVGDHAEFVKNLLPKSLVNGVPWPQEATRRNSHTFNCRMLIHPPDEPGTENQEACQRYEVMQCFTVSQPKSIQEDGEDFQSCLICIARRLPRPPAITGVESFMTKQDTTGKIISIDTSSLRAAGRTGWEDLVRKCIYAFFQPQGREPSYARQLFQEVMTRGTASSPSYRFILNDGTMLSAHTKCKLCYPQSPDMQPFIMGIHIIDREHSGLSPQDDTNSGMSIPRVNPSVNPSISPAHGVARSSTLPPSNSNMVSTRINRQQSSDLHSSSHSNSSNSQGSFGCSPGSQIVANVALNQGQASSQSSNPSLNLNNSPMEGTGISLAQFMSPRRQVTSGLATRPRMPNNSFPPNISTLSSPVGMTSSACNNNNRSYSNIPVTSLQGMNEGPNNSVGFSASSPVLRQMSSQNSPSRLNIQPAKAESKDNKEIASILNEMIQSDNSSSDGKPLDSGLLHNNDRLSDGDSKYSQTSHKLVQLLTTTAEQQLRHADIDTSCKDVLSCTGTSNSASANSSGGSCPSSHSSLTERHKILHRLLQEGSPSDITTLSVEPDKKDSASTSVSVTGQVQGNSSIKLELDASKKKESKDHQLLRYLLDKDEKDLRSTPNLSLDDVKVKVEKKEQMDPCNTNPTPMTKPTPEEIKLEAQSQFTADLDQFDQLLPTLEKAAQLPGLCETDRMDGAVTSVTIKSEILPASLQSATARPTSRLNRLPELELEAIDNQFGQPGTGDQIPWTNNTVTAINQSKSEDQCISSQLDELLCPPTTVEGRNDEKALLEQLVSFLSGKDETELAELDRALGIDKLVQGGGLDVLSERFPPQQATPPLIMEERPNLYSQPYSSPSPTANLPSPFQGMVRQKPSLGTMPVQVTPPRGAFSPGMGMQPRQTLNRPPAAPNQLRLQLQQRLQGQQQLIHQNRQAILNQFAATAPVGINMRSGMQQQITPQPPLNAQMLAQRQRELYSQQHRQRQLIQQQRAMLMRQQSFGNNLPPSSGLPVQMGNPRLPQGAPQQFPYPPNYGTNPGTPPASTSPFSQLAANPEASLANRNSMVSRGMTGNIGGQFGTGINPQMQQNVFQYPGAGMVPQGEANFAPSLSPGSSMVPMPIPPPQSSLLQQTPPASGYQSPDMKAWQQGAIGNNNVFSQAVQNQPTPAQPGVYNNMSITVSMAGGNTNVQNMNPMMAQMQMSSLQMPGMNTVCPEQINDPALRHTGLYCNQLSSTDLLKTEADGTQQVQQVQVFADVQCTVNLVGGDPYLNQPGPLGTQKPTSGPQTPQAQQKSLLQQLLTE
For test [13], the target named is Peroxisome proliferator-activated receptor gamma/Nuclear receptor coactivator 3 (Homo sapiens, UniProt P37231). It counts as functional.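 Further: agonist potency for raising coactivator recruitment to the receptor.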
Test [14] has as its target Peroxisome proliferator-activated receptor gamma/Nuclear receptor coactivator 2 (Homo sapiens, UniProt P37231). It counts as functional.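 Further: agonist potency for raising coactivator recruitment to the receptor.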
Test [15] concerns the target Heat shock protein HSP 90-alpha (Homo sapiens, UniProt P07900). It counts as functional, organism-based.

Calls of active or inactive are those of the source.

Peroxisome proliferator-activated receptor gamma/Nuclear receptor coactivator 2, sequence (P37231 whole entry): as the sequence (P37231 whole entry) above
Peroxisome proliferator-activated receptor gamma/Nuclear receptor coactivator 2, sequence (Q15596 whole entry, further chain): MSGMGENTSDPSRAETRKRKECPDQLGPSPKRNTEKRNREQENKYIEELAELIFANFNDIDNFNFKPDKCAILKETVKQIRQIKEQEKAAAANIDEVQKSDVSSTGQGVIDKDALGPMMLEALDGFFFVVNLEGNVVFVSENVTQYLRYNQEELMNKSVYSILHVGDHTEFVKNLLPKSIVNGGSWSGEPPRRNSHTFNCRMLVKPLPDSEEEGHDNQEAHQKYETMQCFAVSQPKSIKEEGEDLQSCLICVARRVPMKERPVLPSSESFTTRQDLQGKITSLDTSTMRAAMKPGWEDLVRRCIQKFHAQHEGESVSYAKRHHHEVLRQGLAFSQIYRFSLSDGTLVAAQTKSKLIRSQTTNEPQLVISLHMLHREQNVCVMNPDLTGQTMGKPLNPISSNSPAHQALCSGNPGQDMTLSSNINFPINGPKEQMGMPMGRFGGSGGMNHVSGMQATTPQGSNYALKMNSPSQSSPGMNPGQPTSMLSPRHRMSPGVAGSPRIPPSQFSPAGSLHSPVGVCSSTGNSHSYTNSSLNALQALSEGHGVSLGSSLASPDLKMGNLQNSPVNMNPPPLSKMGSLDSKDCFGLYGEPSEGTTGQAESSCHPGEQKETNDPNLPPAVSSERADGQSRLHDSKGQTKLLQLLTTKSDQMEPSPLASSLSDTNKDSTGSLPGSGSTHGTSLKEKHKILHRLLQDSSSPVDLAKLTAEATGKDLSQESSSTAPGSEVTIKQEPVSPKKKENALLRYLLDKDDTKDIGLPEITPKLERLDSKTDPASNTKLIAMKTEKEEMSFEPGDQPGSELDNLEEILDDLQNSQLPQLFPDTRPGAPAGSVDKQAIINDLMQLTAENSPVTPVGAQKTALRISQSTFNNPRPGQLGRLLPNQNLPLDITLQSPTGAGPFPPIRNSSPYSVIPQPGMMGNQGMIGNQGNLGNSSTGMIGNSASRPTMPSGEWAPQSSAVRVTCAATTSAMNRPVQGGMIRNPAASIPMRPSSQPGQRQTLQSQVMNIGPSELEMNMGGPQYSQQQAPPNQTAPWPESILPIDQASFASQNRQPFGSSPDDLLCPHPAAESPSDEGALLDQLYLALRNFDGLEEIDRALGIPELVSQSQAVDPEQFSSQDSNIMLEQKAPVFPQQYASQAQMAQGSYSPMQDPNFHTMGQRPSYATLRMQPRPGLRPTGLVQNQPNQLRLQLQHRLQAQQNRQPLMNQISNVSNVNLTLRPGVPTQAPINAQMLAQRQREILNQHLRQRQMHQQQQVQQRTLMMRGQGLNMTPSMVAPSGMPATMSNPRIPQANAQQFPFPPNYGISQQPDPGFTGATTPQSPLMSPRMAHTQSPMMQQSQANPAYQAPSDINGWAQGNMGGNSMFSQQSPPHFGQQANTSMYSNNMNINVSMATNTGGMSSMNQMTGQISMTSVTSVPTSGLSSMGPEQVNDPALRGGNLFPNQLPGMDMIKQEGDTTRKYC
Cytochrome P450 2C9, sequence (P11712 whole entry): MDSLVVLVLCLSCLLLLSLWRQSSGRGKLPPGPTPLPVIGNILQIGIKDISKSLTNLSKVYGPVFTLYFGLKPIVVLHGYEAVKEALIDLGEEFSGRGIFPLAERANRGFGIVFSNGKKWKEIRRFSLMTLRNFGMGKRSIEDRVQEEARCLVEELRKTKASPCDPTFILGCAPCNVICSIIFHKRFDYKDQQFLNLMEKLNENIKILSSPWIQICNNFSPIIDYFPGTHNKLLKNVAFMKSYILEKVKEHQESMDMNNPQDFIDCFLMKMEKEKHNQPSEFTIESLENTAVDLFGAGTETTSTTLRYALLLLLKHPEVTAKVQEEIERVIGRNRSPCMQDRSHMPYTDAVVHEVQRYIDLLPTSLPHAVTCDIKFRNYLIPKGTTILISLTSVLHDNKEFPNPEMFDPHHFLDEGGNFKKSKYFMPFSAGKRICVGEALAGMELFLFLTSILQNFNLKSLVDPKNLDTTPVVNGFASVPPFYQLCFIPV
FAD-linked sulfhydryl oxidase ALR, sequence (P55789 whole entry): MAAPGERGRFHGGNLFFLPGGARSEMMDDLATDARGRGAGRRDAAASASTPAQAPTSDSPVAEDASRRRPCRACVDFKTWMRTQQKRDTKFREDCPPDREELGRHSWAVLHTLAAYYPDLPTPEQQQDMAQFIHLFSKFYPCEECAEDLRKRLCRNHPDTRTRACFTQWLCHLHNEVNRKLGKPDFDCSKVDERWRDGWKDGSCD

For the compound `O=C1C(NS(=O)(=O)c2cccs2)=C(N2CCN(c3cccc(C(F)(F)F)c3)CC2)C(=O)c2ccccc21`, the half-maximal cytotoxic concentration (CC50) in test [1] is 12.4 µM (active). Also, the EC50 on Streptokinase A is > 150 µM (not active); in test [2], 7.31 µM (active); in the test with Streptococcus, 13.5 µM (active). On Nonstructural protein 1, the IC50 is 19.6 µM (active).

For the compound `Cn1c(=O)n(C)c2cc(/C=C(/C#N)C(=O)NCc3ccco3)ccc21`, the IC50 on Protein skinhead-1 was > 100 µM (inactive).

Take `C=CCNc1ncnc2ccc(Br)cc12`: the AC50 in test [3] was 4.53 µM (active); in [4], 39.1 µM (active); in test [5] it was 5.9 µM (active); in test [6] it was 6.46 µM (active).

For the compound `O=C(N/N=C/c1cc(Br)c(Br)o1)c1cc2ccccc2o1`, the IC50 in test [7] is 5.65 µM (active).

In the case of `CC[C@@]1(C(=O)OC)N[C@H](CN(C)C(=O)COc2ccccc2)[C@@H]2C(=O)N(Cc3ccccc3)C(=O)[C@@H]21`, the AC50 in [3] was 2.2 µM (active); in test [4], 1.53 µM (active); in test [5], 4.2 µM (active); in test [6], 3.82 µM (active).

Turning to `CCCCCCc1nc2ccccc2c(=O)n1NC(=O)c1c(O)c2c(n(CC(C)C)c1=O)CCCC2`, the AC50 in [3] was 22.8 µM (active); in test [4] it was 69.4 µM (active); at Cytochrome P450 2C9, 0.708 µM (inconclusive); in [5] it was 4.42 µM (active); on Cytochrome P450 1A2, 15.8 µM (inconclusive). For the same compound, the EC50 at Streptokinase A was > 150 µM (not active); in [2], 84.9 µM (active); in the test with Streptococcus, > 150 µM (not active).

For the compound `CC(=O)Oc1c(OC(C)=O)c(-c2ccc(O)c(O)c2)c(O)c(O)c1-c1ccc(O)cc1`, the results for the GI50 in the test with SN12K1 and with P388/ADR were > 100 µM (inactive) and 20.7 µM (inactive), respectively.

Take `O=S(=O)(NCc1ccncc1)c1ccc(F)c(F)c1`: the AC50 is 1.2 µM (active) in test [8], 54.7 µM (active) in test [9] and 2.09 µM (active) in test [10].

On to `O=C(OCc1nnc(-c2ccccc2)o1)c1ccc(S(=O)(=O)NCc2ccco2)cc1`, for which the concentration for half-maximal inhibition (IC50) in [7] is 13.4 µM (active).

For `COc1ccccc1C(=O)Nc1ccc(Br)c2cccnc12`, the IC50 on Protein skinhead-1 is > 100 µM (inactive).

Consider `Cc1ccc2oc(=O)c3cc(C(=O)NCCCN4CCCC(C)C4)sc3c2c1` (configuration not stated), for which the 50% cytotoxic concentration (CC50) in the test with Vero was > 25 µM (active).

As for `N#C/C(=C/c1ccc(OC(=O)c2ccc(Br)s2)cc1)c1nc2ccccc2[nH]1`, the half-maximal inhibitory concentration (IC50) in [7] is 1.82 µM (active).

As for `CCc1nc2c(OCc3ccc(C(F)(F)F)cc3)cccn2c1N(C=O)Cc1ccc(OC)cc1`, the IC50 on Fatty acid synthase was 9.21 µM (active).

`COC(=O)/C=C/S(=O)(=O)c1ccc(NC(C)=O)cc1`: the AC50 in test [8] is 14.2 µM (active); in test [9], 42.2 µM (active); in test [11], 0.118 µM (active); in test [10], 7.3 µM (active).

On to `c1coc(CN(Cc2ccco2)c2ncnc3c2oc2ccccc23)c1`, for which the AC50 in [8] was 3.94 µM (active); in test [9], 67 µM (active); in test [10] it was 5.45 µM (active).

Take `Cc1ccc(S(=O)(=O)NC(=O)COc2ccccc2)cc1`: the EC50 in [12], in test [13] and in test [14] was > 79.4 µM (not active) in each case.

In the case of `Oc1ccc(/C=C/c2ccc3cccc(O)c3n2)cc1Br`, the AC50 in [15] was 1.35 µM (active). Besides, the EC50 in test [2] was 1.03 µM (active); with Streptococcus, 2.72 µM (active).

Take `N#Cc1nc(-c2ccco2)oc1N1CCc2ccccc2C1`: the 50% inhibitory concentration (IC50) at Nonstructural protein 1 was > 100 µM (active).

In the case of `Cc1csc(NC(=O)CSc2sc3c(O)cc(O)nc3c2C#N)n1`, the IC50 in test [7] was 5.14 µM (active).

With `COC(=O)c1cnn(-c2nc3c(C)cccc3s2)c1C`, the results for the EC50 in [12], in test [13] and in [14] were 54.5 µM (not active), 67 µM (not active) and 30 µM (not active), respectively.

Consider `Nc1nc(N)nc(-c2ccccn2)n1`, for which, at Nonstructural protein 1, the IC50 is 19.9 µM (active).

In the case of `N#C/C(=C/C1=C(N2CCOCC2)C(=C/c2ccccc2)/CC1)C(=O)Nc1ccccc1F`, on Nonstructural protein 1, the IC50 is 3.83 µM (active).

Take `CSc1ccc(Cl)c(C(=O)NCc2ccco2)c1`: the IC50 on Protein skinhead-1 is > 100 µM (inactive).

Take `COc1ccc(S(=O)(=O)N(C)C)cc1NC(=O)C1CCN(c2ncnc3sc(C)c(C)c23)CC1`: the AC50 in test [8] was 18.9 µM (active); in [9], > 70 µM (inactive); in test [10], 9.21 µM (active).

These data come from ChEMBL document CHEMBL1201862, “PubChem BioAssay data set” (2004).
